Experimental findings from ChEMBL document CHEMBL4376810, “Bioactive Secondary Metabolites from Bacillus subtilis: A Comprehensive Review” (2019) are described below.

In one assay the test system is Micrococcus luteus. Put plainly: Antibacterial activity against Micrococcus luteus incubated for 24 hrs by broth microdilution method. It counts as functional. For orientation: Broth dilution looks for growth in wells or tubes with falling amounts of substance.
The test system of assay [1] is Staphylococcus aureus. Put plainly: Antibacterial activity against methicillin-resistant Staphylococcus aureus incubated for 24 hrs by broth microdilution method. It counts as functional.
Another assay relates to Bacillus pumilus. Kind of assay: Antibacterial activity against Bacillus pumilus incubated for 24 hrs by broth microdilution method. The class given is functional.
The next assay relates to Salmonella typhimurium. Kind of assay: Antibacterial activity against Salmonella typhimurium incubated for 18 hrs by agar dilution assay. The class given is functional, Salmonella enterica subsp. enterica serovar Typhimurium. The conditions noted are these: Salmonella enterica.
Assay [2] concerns Staphylococcus aureus. Put plainly: Antibacterial activity against methicillin-resistant Staphylococcus aureus incubated for 18 hrs by agar dilution assay. It counts as functional. In general terms: In agar dilution, organisms are placed on agar that contains the substance at set levels.
The subject of a further assay is Morganella morganii. Kind of assay: Antibacterial activity against streptomycin-resistant Morganella morganii incubated for 18 hrs by agar dilution assay. It counts as functional.
The test system of assay [3] is Staphylococcus aureus. Put plainly: Antibacterial activity against Staphylococcus aureus. It counts as functional.
Assay [4] relates to Staphylococcus aureus. Kind of assay: Antibacterial activity against methicillin-resistant Staphylococcus aureus. The class given is functional.
In the next assay the test system is Streptococcus pneumoniae. Kind of assay: Antibacterial activity against Streptococcus pneumoniae by broth microdilution method. The class given is functional.
Assay [5] relates to Staphylococcus aureus. Kind of assay: Antibacterial activity against oxacillin-resistant Staphylococcus aureus by broth microdilution method. The class given is functional.
The subject of assay [6] is Staphylococcus epidermidis. Put plainly: Antibacterial activity against Staphylococcus epidermidis by broth microdilution method. The class given is functional.
For another assay, the system named is Rhizoctonia solani. Kind of assay: Antifungal activity against Rhizoctonia solani assessed as inhibition of fungal growth incubated for 48 hrs by standard broth dilution assay. It counts as functional.
Another assay deals with Botrytis cinerea. Kind of assay: Antifungal activity against Botrytis cinerea assessed as inhibition of fungal growth incubated for 48 hrs by standard broth dilution assay. The class given is functional.
The subject of a further assay is Colletotrichum acutatum. Put plainly: Antifungal activity against Colletotrichum acutatum assessed as inhibition of fungal growth incubated for 48 hrs by standard broth dilution assay. The class given is functional.

Converted amounts (≈) assume the structure as drawn. Non-standard residues stand in square brackets, D forms with d. Residues, ends and D or L forms follow the SMILES beside them. *: point of attachment. Tridecanoyl(3R-OH,11-Me) = CCC(C)CCCCCCC[C@@H](O)CC(=O)*; X1 = CCC(C)CC(C)CCCCC[C@@H](O)CC(=O)*

In general, MIC refers to the least concentration at which growth counts as inhibited.

For the compound `CC1=CC2C(OC3OC(C)C(O)C(=O)C3O)CCCC2C2C(=O)OC(=O)/C=C3/CC(O)C/C3=C/2C1/C=C/C=C/C=C(\C)CC(C)CC(O)C(C)C(=O)O` (stereo not drawn), the MIC with Micrococcus luteus, in the assay on Staphylococcus aureus [1] and against Bacillus pumilus was less than 7 µg/mL throughout.
Regarding `C=C/C=C(\C)CCC1CCC/C=C\C=C(\C)C(OP(=O)(O)O)CCC\C=C/C=C\C=C\C=C\CC(C)C(=C)CC(=O)O1` (stereo not drawn), the minimum inhibitory concentration (MIC) against Salmonella typhimurium, in the assay with Staphylococcus aureus [2] and in the assay on Morganella morganii was 2 to 32 µg/mL (≈ 3.34 to 53.4 µM) in each case.
In the case of `CC(C)C[C@H](NC(=O)[C@@H](O)[C@@H](O)[C@@H](N)CC(N)=O)[C@@H]1Cc2cccc(O)c2C(=O)O1`, the MIC in the assay on Staphylococcus aureus [3] was less than 1 µg/mL.
The compound `CCCCCCCCCCCCCC(=O)N[C@@H]1C(=O)N[C@H](CCC(N)=O)C(=O)N[C@@H](CC(=O)O)C(=O)NCC(=O)N[C@@H](CC(N)=O)C(=O)N[C@@H](CC(=O)O)C(=O)NCC(=O)N[C@@H](Cc2ccc(O)cc2)C(=O)N[C@@H](C(C)C)C(=O)OC1C` (stereo partly drawn) displayed a minimum inhibitory concentration (MIC) with Staphylococcus aureus [4] of 20 µg/mL (≈ 17.2 µM).
The same measure, in the same setting: as for `CCCCCCCCCCCCC(=O)N[C@@H]1C(=O)N[C@H](CCC(N)=O)C(=O)N[C@@H](CC(=O)O)C(=O)NCC(=O)N[C@@H](CC(N)=O)C(=O)N[C@@H](CC(=O)O)C(=O)NCC(=O)N[C@@H](Cc2ccc(O)cc2)C(=O)N[C@@H](C(C)C)C(=O)OC1C` (stereo partly drawn), the figure is 20 µg/mL (≈ 17.4 µM); as for `CCCCCCCCCCCC(=O)N[C@@H]1C(=O)N[C@H](CCC(N)=O)C(=O)N[C@@H](CC(=O)O)C(=O)NCC(=O)N[C@@H](CC(N)=O)C(=O)N[C@@H](CC(=O)O)C(=O)NCC(=O)N[C@@H](Cc2ccc(O)cc2)C(=O)N[C@@H](C(C)C)C(=O)OC1C` (stereo partly drawn), 20 µg/mL (≈ 17.7 µM).
For the compound `CC1=CC2C(OC3OC(C)C(O)C(O)C3O)CCCC2C2C(=O)OC(=O)/C(C)=C3/CC(O)C/C3=C/2C1/C=C/C=C/C=C(\C)CC(C)CC(O)C(C)C(=O)O` (stereo not drawn), the MIC in the assay on Micrococcus luteus, against Staphylococcus aureus [1] and with Bacillus pumilus was less than 7 µg/mL in each case.
Regarding `CC(C)C[C@H](NC(=O)[C@H]1OCN[C@@H](CC(N)=O)[C@@H]1O)[C@@H]1Cc2cccc(O)c2C(=O)O1`, the MIC (in the assay on Streptococcus pneumoniae; in the assay on Staphylococcus aureus [5]; in assay [6]) was 0.5 to 2 µg/mL (≈ 1.15 to 4.59 µM) each time.
Take `CCC(C)CCCCCCC[C@@H](O)CC(=O)N[C@@H](CCC(=O)O)C(=O)N[C@@H](CC(C)C)C(=O)N[C@@H](CC(C)C)C(=O)N[C@@H](C(=O)N[C@@H](CC(=O)O)C(=O)N[C@@H](CC(C)C)C(=O)N[C@@H](CC(C)C)C(=O)O)C(C)C` (stereo partly drawn) ({Tridecanoyl(3R-OH,11-Me)}-ELL[dV]DLL-OH): the minimum inhibitory concentration (MIC) with Rhizoctonia solani, with Botrytis cinerea and in the assay with Colletotrichum acutatum was 4 to 8 µg/mL (≈ 3.84 to 7.69 µM) in each case.
Consider `C=C/C=C(\C)CCC1CCC/C=C\C=C(\C)C(OP(=O)(O)O)CCC\C=C/C=C\C=C\C=C\C(O)C(C)C(=C)CC(=O)O1` (stereo not drawn), for which the MIC against Salmonella typhimurium, in the assay with Staphylococcus aureus [2] and in the assay with Morganella morganii was 2 to 32 µg/mL (≈ 3.25 to 52.1 µM) each time.
Take `CCC(C)CC(C)CCCCC[C@@H](O)CC(=O)N[C@@H](CCC(=O)O)C(=O)N[C@@H](CC(C)C)C(=O)N[C@@H](CC(C)C)C(=O)N[C@@H](C(=O)N[C@@H](CC(=O)O)C(=O)N[C@@H](CC(C)C)C(=O)N[C@@H](CC(C)C)C(=O)O)C(C)C` (stereo partly drawn) (X1-ELL[dV]DLL-OH): the MIC with Rhizoctonia solani, in the assay with Botrytis cinerea and in the assay with Colletotrichum acutatum was 4 to 8 µg/mL (≈ 3.79 to 7.59 µM) in each case.
As for `CC1=CC2C(OC3OC(C)C(O)C(=O)C3O)CCCC2C2C(=O)OC(=O)/C(C)=C3/CC(O)C/C3=C/2C1/C=C/C=C/C=C(\C)CC(C)CC(O)C(C)C(=O)O` (stereo not drawn), the MIC with Micrococcus luteus, with Staphylococcus aureus [1] and in the assay with Bacillus pumilus was less than 7 µg/mL throughout.
